# Data reported in US11214803B2, “Modulators of YAP1 expression” (Ionis Pharmaceuticals, Inc., priority 2019, dated 2022).
# Strand notation (5' to 3'): a small letter for the sugar, then the base; units joined by * are phosphorothioate-linked, units joined directly phosphodiester-linked; [ ] holds rarer units or linkages, { } end groups; capitals alone tell only the bases. k = constrained ethyl (cEt); [5mC] = 5-methylcytosine; d = 2'-deoxy (DNA)
# Tested on: Yap1 mRNA
# Assay: Antisense inhibition of human Yap1 in A-431 cells by cEt gapmers, single dose (Example 2, RTS4814)
# Type: cell-based
# Outline: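 Each 16-nucleoside gapmer (ten-deoxy gap, three-cEt wings) is tested once at 2,000 nM in A-431 cells by free uptake. Yap1 mRNA after about 48 hours is measured by quantitative RT-PCR and expressed relative to untreated control.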
# [1] = Table 33, Yap1 mRNA, percent of untreated control, 3-10-3 cEt gapmers targeting SEQ ID NO.: 1, and 2
# [2] = A-431 cells, 5,000 cells per well, free uptake, 2,000 nM modified oligonucleotide, approx. 48 hours, RTS4814, normalized to RIBOGREEN, Table 4, asterisk (*) = targets amplicon region of primer probe set
# [3] = Table 21, Yap1 mRNA, percent of untreated control, 3-10-3 cEt gapmers targeting SEQ ID NO.: 1 and 2
# [4] = Table 19, A-431 cells, 5,000 cells per well, free uptake, 2,000 nM modified oligonucleotide, approx. 48 hours, RTS4814, normalized to RIBOGREEN, Yap1 mRNA as percent of untreated control
# [5] = Table 23, Yap1 mRNA as percent of untreated control, 3-10-3 cEt gapmers, single dose
# [6] = Table 32, Yap1 mRNA, percent of untreated control, 3-10-3 cEt gapmers targeting SEQ ID NO.: 1, and 2
# [7] = Yap1 mRNA as percent of untreated control, A-431 cells, 3-10-3 cEt gapmers targeting SEQ ID NO.: 1, and 2, Table 31
# [8] = Table 25, Yap1 mRNA as percent of untreated control, 3-10-3 cEt gapmers targeting SEQ ID NO.: 1, and 2
# [9] = Yap1 mRNA as percent of untreated control, A-431 cells, 3-10-3 cEt gapmers targeting SEQ ID NO.: 1, and 2, Table 30
# [10] = Table 18, A-431 cells, 5,000 cells per well, free uptake, 2,000 nM modified oligonucleotide, approx. 48 hours, RTS4814, normalized to RIBOGREEN, Yap1 mRNA as percent of untreated control
# [11] = Table 24, Yap1 mRNA as percent of untreated control, 3-10-3 cEt gapmers targeting SEQ ID NO.: 1, and 2
# [12] = Table 6, A-431 cells, 5,000 cells per well, free uptake, 2,000 nM modified oligonucleotide, approx. 48 hours, RTS4814, normalized to RIBOGREEN, Yap1 mRNA relative to untreated control cells
substance,measurement,setting,value
1075750 (k[5mC]*kA*kA*dT*dT*dA*dT*dG*dA*dA*dT*dG*dA*kT*kG*kG; antisense) [Compound 1075750],YAP1 (% UTC),"Table 20, Yap1 mRNA, percent of untreated control, 3-10-3 cEt gapmers targeting SEQ ID NO.: 1 and 2",10 % UTC
1075603 (antisense kT*kA*kT*dG*dA*dA*d[5mC]*dA*dA*dG*dT*dA*dT*kG*kA*kG) [compound 1075603],YAP1 (% UTC),[1],35 % UTC
716520 (antisense kA*kG*kT*d[5mC]*dT*dT*dT*dA*dT*dT*dA*dA*dA*kG*kA*kG) [Compound 716520],YAP1 (% UTC),[2],96 % UTC
1075655 (k[5mC]*kT*kA*dT*dT*dA*dA*dG*dA*d[5mC]*dG*dA*dA*kT*k[5mC]*k[5mC]; antisense) [Compound 1075655],YAP1 (% UTC),[3],38 % UTC
716562 (kG*k[5mC]*k[5mC]*dT*dG*d[5mC]*d[5mC]*dG*dA*dA*dG*d[5mC]*dA*kG*kT*kT) [Compound 716562],YAP1 (% UTC),"Table 7 (gapmers targeting SEQ ID NO: 3 and 4), A-431 cells, free uptake, 2,000 nM, approximately 48 hours, RTS4814",103 % UTC
1075559 (kG*kA*kT*dA*dT*dT*dA*dA*dG*dG*dT*dG*dG*k[5mC]*kT*kT; antisense) [Compound 1075559],YAP1 (% UTC),[3],24 % UTC
1076389 (kA*kT*k[5mC]*dG*dA*dA*dA*dT*dA*dT*dT*d[5mC]*dG*kA*kG*kA; antisense) [Compound 1076389],YAP1 (% UTC),[4],76 % UTC
1075593 (k[5mC]*kA*kT*dT*dA*dG*dA*dG*dT*dA*dT*dG*dA*kA*k[5mC]*kT; antisense) [Compound 1075593],YAP1 (% UTC),[5],99 % UTC
1074695 (antisense k[5mC]*k[5mC]*k[5mC]*d[5mC]*d[5mC]*dT*dA*dA*dA*dT*d[5mC]*dT*dT*k[5mC]*kA*k[5mC]) [Compound 1074695],YAP1 (% UTC),[3],49 % UTC
1074354 (antisense kG*kG*kA*d[5mC]*dA*d[5mC]*dT*dG*dT*dA*dG*d[5mC]*dT*kG*k[5mC]*kT) [compound 1074354],YAP1 (% UTC),[6],24 % UTC
1075623 (k[5mC]*kA*kT*dA*dA*dT*d[5mC]*dA*dA*dA*dA*dT*dG*kG*kG*k[5mC]; antisense) [Compound 1075623],YAP1 (% UTC),[3],48 % UTC
1074673 (antisense kA*kG*kG*d[5mC]*dA*d[5mC]*dT*d[5mC]*d[5mC]*dT*dT*d[5mC]*d[5mC]*kA*kA*kG) [compound 1074673],YAP1 (% UTC),[7],43 % UTC
1075467 (antisense k[5mC]*kA*kT*dT*dA*dA*dT*dG*d[5mC]*d[5mC]*dA*dT*d[5mC]*k[5mC]*kA*kA) [Compound 1075467],YAP1 (% UTC),[8],60 % UTC
1076082 (kT*k[5mC]*kT*d[5mC]*dA*dA*dT*dA*d[5mC]*dA*d[5mC]*dT*dA*kT*kA*kT; antisense) [compound 1076082],YAP1 (% UTC),[6],38 % UTC
1076048 (kG*kA*kT*dT*dA*dA*dA*dG*dG*d[5mC]*dT*dG*dG*kA*kA*kG; antisense) [compound 1076048],YAP1 (% UTC),[9],32 % UTC
1076338 (antisense k[5mC]*kA*kT*dT*dA*dA*dA*d[5mC]*d[5mC]*dA*dG*dG*dG*kA*k[5mC]*kT) [compound 1076338],YAP1 (% UTC),[6],33 % UTC
716527 (antisense kA*kG*kT*dA*d[5mC]*dA*dG*dA*dG*dG*dG*d[5mC]*dA*kT*k[5mC]*kG) [Compound 716527],YAP1 (% UTC),"Table 5, A-431 cells, 5,000 cells per well, free uptake, 2,000 nM modified oligonucleotide, approx. 48 hours, RTS4814, normalized to RIBOGREEN, Yap1 mRNA relative to untreated control cells",64 % UTC
1075881 (kG*kA*kT*dT*dA*dA*d[5mC]*dT*dA*d[5mC]*dA*d[5mC]*d[5mC]*kA*k[5mC]*kG; antisense) [Compound 1075881],YAP1 (% UTC),[5],23 % UTC
1074219 (antisense kA*kG*kT*d[5mC]*dA*dG*dG*dG*d[5mC]*dT*d[5mC]*d[5mC]*dT*kG*k[5mC]*kA) [Compound 1074219],YAP1 (% UTC),[8],30 % UTC
1075588 (kA*k[5mC]*kT*dT*dA*dT*dT*dA*dG*d[5mC]*dA*d[5mC]*d[5mC]*kT*kG*kG; antisense) [Compound 1075588],YAP1 (% UTC),[10],27 % UTC
1076263 (kA*kA*kT*dA*dA*d[5mC]*d[5mC]*dA*dA*dG*dT*dG*dA*kG*kT*kT; antisense) [Compound 1076263],YAP1 (% UTC),[3],21 % UTC
716556 (kG*k[5mC]*kA*dT*dT*dA*dA*dA*dG*dA*dA*dT*dT*k[5mC]*kT*k[5mC]; antisense) [Compound 716556],YAP1 (% UTC),[2],39 % UTC
1075466 (antisense kT*k[5mC]*k[5mC]*dA*dA*dA*dA*dA*d[5mC]*d[5mC]*dA*dT*d[5mC]*kA*kG*kT) [Compound 1075466],YAP1 (% UTC),[11],28 % UTC
1076240 (kA*kT*kT*dA*dA*dA*dA*dG*d[5mC]*dA*dA*dG*dG*kT*kG*k[5mC]; antisense) [compound 1076240],YAP1 (% UTC),[9],56 % UTC
1076107 (k[5mC]*kA*kT*dT*dA*d[5mC]*d[5mC]*dA*dA*d[5mC]*dT*dT*d[5mC]*kT*kT*k[5mC]; antisense) [Compound 1076107],YAP1 (% UTC),[8],23 % UTC
1074515 (kT*kA*kA*d[5mC]*dT*dG*dG*dA*dA*dA*dG*d[5mC]*dA*kG*kG*kG; antisense) [compound 1074515],YAP1 (% UTC),[1],9 % UTC
716547 (kG*kG*kT*dA*dT*dG*dA*dA*dT*dT*d[5mC]*dT*dG*kA*kA*kT; antisense) [Compound 716547],YAP1 (% UTC),[2],44 % UTC
1075346 (antisense kG*kT*kA*dA*dG*dT*dA*dA*dA*dA*d[5mC]*dT*dG*k[5mC]*kT*kG) [compound 1075346],YAP1 (% UTC),[6],16 % UTC
1074148 (antisense kG*kT*kG*dG*dA*dG*dA*dA*dG*d[5mC]*dG*dG*d[5mC]*kG*kA*k[5mC]) [Compound 1074148],YAP1 (% UTC),[10],66 % UTC
1076549 (antisense kG*kT*kG*d[5mC]*dA*dA*dA*dA*dT*dA*d[5mC]*d[5mC]*dT*kT*kT*kG) [Compound 1076549],YAP1 (% UTC),[4],8 % UTC
1075753 (k[5mC]*kT*kA*dG*dA*dA*d[5mC]*d[5mC]*dT*dT*dT*dT*d[5mC]*k[5mC]*kA*kG; antisense) [Compound 1075753],YAP1 (% UTC),[5],65 % UTC
1076491 (antisense kA*kG*k[5mC]*d[5mC]*dA*dA*dA*dA*dT*dA*dG*dG*dT*kG*kA*kG) [Compound 1076491],YAP1 (% UTC),[8],12 % UTC
1076531 (kA*k[5mC]*kT*dA*dT*dA*dA*dA*dG*dG*dG*dT*dT*kT*kA*kG; antisense) [compound 1076531],YAP1 (% UTC),[1],66 % UTC
716369 (k[5mC]*kG*kG*d[5mC]*dG*dG*d[5mC]*dT*dT*dG*dA*dA*dG*kA*kA*kG; antisense) [Compound 716369],YAP1 (% UTC),[12],94 % UTC
1074186 (antisense kG*kG*kG*d[5mC]*d[5mC]*dG*dG*dT*dT*dG*dA*dG*dG*k[5mC]*kG*kG) [Compound 1074186],YAP1 (% UTC),[11],74 % UTC
1075818 (k[5mC]*kA*kT*dA*dA*d[5mC]*dT*dT*dA*dG*dA*dA*d[5mC]*k[5mC]*kA*kT; antisense) [Compound 1075818],YAP1 (% UTC),[11],35 % UTC
1074696 (antisense kG*kT*k[5mC]*d[5mC]*d[5mC]*d[5mC]*d[5mC]*dT*dA*dA*dA*dT*d[5mC]*kT*kT*k[5mC]) [Compound 1074696],YAP1 (% UTC),"Table 22, Yap1 mRNA as percent of untreated control, 3-10-3 cEt gapmers, single dose",38 % UTC
1075465 (antisense kG*kA*kT*dT*dT*dA*dT*dT*dG*dA*dA*d[5mC]*dT*kG*kA*kG) [Compound 1075465],YAP1 (% UTC),[5],7 % UTC
1075652 (kG*kT*kA*dT*dA*dT*dT*dA*d[5mC]*dA*dA*dT*d[5mC]*k[5mC]*k[5mC]*kA; antisense) [Compound 1075652],YAP1 (% UTC),[10],40 % UTC
1075877 (k[5mC]*kT*kG*dG*dA*dA*dA*dA*dG*dT*dA*d[5mC]*dA*kT*kT*k[5mC]; antisense) [Compound 1075877],YAP1 (% UTC),[4],28 % UTC
1075530 (kG*kA*kA*dA*dT*d[5mC]*dG*dA*dA*dG*dG*dG*d[5mC]*kA*kA*kA; antisense) [Compound 1075530],YAP1 (% UTC),[11],30 % UTC
1075697 (kA*kA*kT*dA*dA*dT*d[5mC]*d[5mC]*dA*dT*dG*d[5mC]*dT*kT*kG*k[5mC]; antisense) [compound 1075697],YAP1 (% UTC),[7],16 % UTC
716474 (kT*kA*kA*dA*dT*dG*dA*dA*dG*dG*dT*dA*dA*kA*k[5mC]*k[5mC]; antisense) [Compound 716474],YAP1 (% UTC),[12],120 % UTC
1076490 (antisense k[5mC]*k[5mC]*kA*dA*dA*dA*dT*dA*dG*dG*dT*dG*dA*kG*kT*k[5mC]) [Compound 1076490],YAP1 (% UTC),[11],2 % UTC
1074385 (k[5mC]*kT*kT*d[5mC]*dA*dA*dG*dG*dT*dA*dG*dT*d[5mC]*kT*kG*kG; antisense) [compound 1074385],YAP1 (% UTC),[7],17 % UTC
